Experimental data published in US20230126568A1, “PRODUCTION METHOD FOR […] AND UTILIZATION THEREOF” (FUJIFILM Corporation, priority 2020, published 2023).
Where two headings read alike, the source gives them in different places.

Assays:
[1] = Midazolam permeability of intestinal epithelial cells (apical to basolateral, cell culture insert); assay type: in vitro ADME; conditions: human; for Papp A→B at 60 min, 10 μmol/L: 10 μmol/L midazolam apical pH 6.5, basolateral pH 7.4, 37° C., read-out: Apparent permeability coefficient; for Papp at 60 min, 10 μmol/L: read-out: Apparent permeability coefficient after correction
Protocol: The midazolam permeability of the intestinal epithelial cells obtained in Comparative Examples 1 and Examples 1 to 5 was evaluated. After the end of the induction of differentiation, HBSS (pH 6.5) was added to the apical side and HBSS (pH 7.4) was added to the lower bottom (basolateral) side, and pre-incubation was carried out at 37° C. for 60 minutes. Then, HBSS (pH 6.5) containing 10 μmol/L midazolam was added to the apical side, and HBSS (pH 7.4) was added to the lower bottom (basolateral) side, and incubation was carried out at 37° C. for 60 minutes. A sample was collected from the lower bottom (basolateral) side every 15 minutes. The amount of each compound (unchanged form) was quantified using a liquid chromatography-mass spectrometer (LC-MS/MS). The apparent permeability coefficient (Papp) was calculated from the quantification result.
The apparent permeability coefficient was corrected by using the scaling factor x for the apparent permeability coefficient of Example 4 obtained in Test Example 6. At this time, the following expression was used.
The permeation amount per unit time=(the B60 substrate amount−x ×the difference in the B60 substrate amount due to the presence or absence of the addition of the metabolism inhibitor)/the permeation time

[2] = test system: intestinal epithelial cells; assay: Fg of midazolam calculated from the permeation test (Expression 1 / Expression 2); assay type: in vitro ADME, human; conditions: cells of Example 4
Protocol: Fg=(the B60 substrate amount+the cell 60 substrate amount)/(the B60 substrate amount +cell 60 substrate amount+the total 60 metabolite amount) (Expression 1)
The B60 substrate amount: The mass of the substrate permeated to the B side 60 minutes after the test substance serving as a substrate was added to the A side.
The cell 60 substrate amount: The mass of the substrate accumulated in the cells 60 minutes after the test substance serving as a substrate was added to the A side.
The total 60 metabolite amount: Total amount of the metabolite accumulated on the A, on the B side, and in the cells 60 minutes after the test substance serving as a substrate was added to the A side.

[3] = test system: small intestinal tissue of a living body; conditions: in vitro; cited from earlier work
[4] = small intestine of a living body; cited from earlier work

For `Cc1ncc2n1-c1ccc(Cl)cc1C(c1ccccc1F)=NC2` [midazolam], the Papp A→B at 60 min, 10 μmol/L ([1]; cells of Comparative Example 1) was 48 ×10⁻⁶ cm/s, the Papp A→B at 60 min, 10 μmol/L ([1]; cells of Example 1) was 30 ×10⁻⁶ cm/s and the Papp A→B at 60 min, 10 μmol/L ([1]; cells of Example 2) was 32 ×10⁻⁶ cm/s. The Papp A→B at 60 min, 10 μmol/L ([1]; cells of Example 3) was 33 ×10⁻⁶ cm/s, the Papp A→B at 60 min, 10 μmol/L ([1]; cells of Example 4) was 31 ×10⁻⁶ cm/s and the Papp at 60 min, 10 μmol/L ([1]; cells of Example 4, scaling factor x = 2) was 21.9 ×10⁻⁶ cm/s. For the same compound, the Papp at 60 min, 10 μmol/L ([1]; cells of Example 4, scaling factor x = 3) was 15.2 ×10⁻⁶ cm/s, the Papp at 60 min, 10 μmol/L ([1]; cells of Example 4, scaling factor x = 4) was 8.6 ×10⁻⁶ cm/s and the Papp at 60 min, 10 μmol/L ([1]; cells of Example 4, scaling factor x = 5) was 1.9 ×10⁻⁶ cm/s. For the same compound, the Papp at 60 min, 10 μmol/L ([1]; cells of Example 4, scaling factor x = 5.2) was 0.6 ×10⁻⁶ cm/s, the Papp A→B at 60 min, 10 μmol/L ([1]; cells of Example 5) was 31 ×10⁻⁶ cm/s and the “Fg simply calculated by Expression 1” value ([2]; no scaling factor) was 0.83. For the same compound, the Fg after correction ([2]; scaling factor x = 1) was 0.83, the Fg after correction ([2]; scaling factor x = 2) was 0.70 and the Fg after correction ([2]; scaling factor x = 4) was 0.54. It also gave a Fg after correction ([2]; scaling factor x = 6) of 0.44, a Fg after correction ([2]; scaling factor x = 8) of 0.37 and a Fg after correction ([2]; scaling factor x = 10) of 0.32. The Fg after correction ([2]; scaling factor x = 12) was 0.28, the apparent permeability coefficient [3] was 5 ×10⁻⁶ cm/s and the “Fa (absorption rate in the intestinal tract)” value [4] was 1.0.
